This is an account of results in ChEMBL document CHEMBL5338706, “Discovery of a potent and selective proteolysis targeting chimera (PROTAC) degrader of NSD3 histone methyltransferase” (Eur J Med Chem, 2022).

Calls of active or inactive are those of the source. The calls are words filed in the database; no cut-off is given here.

One may read the EC50 as the midpoint of the concentration-response curve. A low value points to an effect from little substance. What is called inhibition is the percentage by which the read-out fell short of the control. Low readings indicate little suppression, high ones strong suppression.

For test [1], the target named is T1, Histone-lysine N-methyltransferase NSD3 (Homo sapiens, UniProt Q9BZ95).
T1 sequence (Q9BZ95 whole entry): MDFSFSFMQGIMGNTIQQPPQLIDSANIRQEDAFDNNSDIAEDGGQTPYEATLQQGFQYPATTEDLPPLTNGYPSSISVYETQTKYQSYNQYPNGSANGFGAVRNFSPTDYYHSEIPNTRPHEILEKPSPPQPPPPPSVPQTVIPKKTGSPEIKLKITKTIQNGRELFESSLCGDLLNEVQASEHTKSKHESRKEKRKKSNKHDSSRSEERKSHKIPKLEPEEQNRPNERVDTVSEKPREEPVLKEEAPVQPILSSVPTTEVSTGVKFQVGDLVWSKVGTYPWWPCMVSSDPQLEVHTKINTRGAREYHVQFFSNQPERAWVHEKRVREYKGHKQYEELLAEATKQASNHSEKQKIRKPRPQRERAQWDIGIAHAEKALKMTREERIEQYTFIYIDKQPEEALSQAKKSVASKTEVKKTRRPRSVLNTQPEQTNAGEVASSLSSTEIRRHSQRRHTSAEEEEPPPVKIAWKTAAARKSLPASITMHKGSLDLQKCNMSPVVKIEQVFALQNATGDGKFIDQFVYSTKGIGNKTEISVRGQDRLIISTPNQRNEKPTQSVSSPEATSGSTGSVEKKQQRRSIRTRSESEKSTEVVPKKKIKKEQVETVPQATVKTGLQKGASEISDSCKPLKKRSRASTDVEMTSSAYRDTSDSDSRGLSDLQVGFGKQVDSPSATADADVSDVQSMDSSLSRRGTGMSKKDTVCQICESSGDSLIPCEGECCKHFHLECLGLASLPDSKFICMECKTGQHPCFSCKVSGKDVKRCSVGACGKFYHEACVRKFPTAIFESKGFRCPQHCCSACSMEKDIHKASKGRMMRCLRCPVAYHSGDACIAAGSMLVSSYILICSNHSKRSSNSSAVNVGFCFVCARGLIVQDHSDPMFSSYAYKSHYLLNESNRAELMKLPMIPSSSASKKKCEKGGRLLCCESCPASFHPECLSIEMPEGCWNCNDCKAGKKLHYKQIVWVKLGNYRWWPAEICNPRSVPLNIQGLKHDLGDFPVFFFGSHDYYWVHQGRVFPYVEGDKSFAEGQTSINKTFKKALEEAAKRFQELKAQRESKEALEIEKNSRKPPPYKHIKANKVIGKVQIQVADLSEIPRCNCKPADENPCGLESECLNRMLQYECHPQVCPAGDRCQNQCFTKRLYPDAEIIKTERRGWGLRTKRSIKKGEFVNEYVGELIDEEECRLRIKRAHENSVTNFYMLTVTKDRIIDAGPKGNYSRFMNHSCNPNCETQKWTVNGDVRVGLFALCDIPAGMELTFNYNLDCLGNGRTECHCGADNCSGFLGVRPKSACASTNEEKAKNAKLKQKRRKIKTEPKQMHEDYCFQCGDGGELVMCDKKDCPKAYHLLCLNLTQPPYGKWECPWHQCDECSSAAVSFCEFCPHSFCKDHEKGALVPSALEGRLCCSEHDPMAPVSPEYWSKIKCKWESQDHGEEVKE
Kind of test: Induction of NSD3 degradation in human A549 cells measured after 72 hrs by Western blot analysis. The format is cell-based. On the technique in general: In western blotting, separated proteins are transferred to a membrane and probed.

The target in test [2] is T2, Histone-lysine N-methyltransferase NSD3 (Homo sapiens) (UniProt Q9BZ95).
T2 sequence (whole entry): T1 sequence (Q9BZ95 whole entry)
Kind of test: Induction of NSD3 degradation in human NCI-H1703 cells at 0.001 to 5 uM by Western blot analysis. Format: cell-based. The note with it: dose 0.001-5 µM, time 12-72 hrs, TDE = time-dependent effect.

Test [3] deals with NCI-H1703. Kind of test: Downregulation of CDC25A in human NCI-H1703 cells at […] measured after 72 hrs by RNA sequencing assay. The format is functional, cell-based. The note with it: dose 7.5 µM.
Test [4] concerns NCI-H1703. Kind of test: Downregulation of CDC25A in human NCI-H1703 cells measured after 72 hrs by RT-qPCR method. Conditions: dose 3-7.5 µM. Format: functional, cell-based. (In general: Quantitative PCR measures a nucleic acid by following its amplification.)
For test [5], the system named is NCI-H1703. Kind of test: Downregulation of CDC25A level in human NCI-H1703 cells at 3 to […] by Western blot analysis. Format: functional, cell-based. The note with it: dose 3-7.5 µM.
In test [6] the test system is NCI-H520. The test is described as follows: Downregulation of CDC25A level in human NCI-H520 cells at 3 to […] by Western blot analysis. The format is functional, cell-based. Conditions: dose 3-7.5 µM.
The test system of test [7] is NCI-H1703. The test is described as follows: Induction of apoptosis in human NCI-H1703 cells assessed as early apoptotic cells at […] measured after 72 hrs by PI/Annexin-V staining based flow cytometry analysis (reference value: 1.47% ). The format is functional. The note with it: dose 7.5 µM. (In flow cytometry, cells or beads pass a laser one at a time.)
Test [8] deals with NCI-H1703. Kind of test: Induction of apoptosis in human NCI-H1703 cells assessed as late apoptotic cells at 3 uM measured after 72 hrs by PI/Annexin-V staining based flow cytometry analysis (reference value: 3.00% ). Format: functional.
Test [9] deals with NCI-H1703. The test is described as follows: Induction of apoptosis in human NCI-H1703 cells assessed as necrotic cells at 10 uM measured after 72 hrs by PI/Annexin-V staining based flow cytometry analysis (reference value: 2.80% ). Format: functional.
A short description of test [10]: Inhibition of clone formation in human NCI-H1703 cells at 3 uM incubated for 10 days with media replenishment for every 5 days by crystal violet staining based analysis relative to control. The format is functional. The note with it: NCI-H1703, 240 h, time 10 day.
A short description of test [11]: Downregulation of CDC25A level in human NCI-H1703 cells at […] by measuring fold change by Western blot analysis relative to control. Format: functional. Conditions: dose 7.5 µM.
A short description of test [12]: Downregulation of Cyclin D1 level in human NCI-H1703 cells at 3 uM by measuring fold change by Western blot analysis relative to control. Format: functional.
The nature of test [13]: Downregulation of NSD3 level in human NCI-H520 cells at 5 uM by measuring fold change by Western blot analysis relative to control. The format is functional.
A short description of test [14]: Downregulation of CDC25A level in human NCI-H520 cells at 3 uM by measuring fold change by Western blot analysis relative to control. The format is functional.
Test [15] in a line: Downregulation of CDC25A level in human NCI-H520 cells at 5 uM by measuring fold change by Western blot analysis relative to control. Format: functional.
The nature of test [16]: Downregulation of Cyclin D1 level in human NCI-H520 cells at […] by measuring fold change by Western blot analysis relative to control. Format: functional. The note with it: dose 7.5 µM.
The subject of test [17] is NCI-H1703. Kind of test: Induction of apoptosis in human NCI-H1703 cells assessed as decrease in NSD3 protein expression at […] by measuring fold change by Western blot analysis relative to control. Format: functional. The note with it: dose 7.5 µM.
Test [18] has as its system NCI-H1703. Kind of test: Induction of apoptosis in human NCI-H1703 cells assessed as decrease in MCL-1 protein expression at 10 uM by measuring fold change by Western blot analysis relative to control. The format is functional.
Test [19] concerns NCI-H520. Kind of test: Induction of apoptosis in human NCI-H520 cells assessed as decrease in NSD3 protein expression at […] by measuring fold change by Western blot analysis relative to control. The format is functional. Conditions: dose 7.5 µM.
Test [20] concerns NCI-H520. Kind of test: Induction of apoptosis in human NCI-H520 cells assessed as decrease in NSD3 protein expression at 10 uM by measuring fold change by Western blot analysis relative to control. Format: functional.
Test [21] concerns NCI-H520. The test is described as follows: Induction of apoptosis in human NCI-H520 cells assessed as decrease in MCL-1 protein expression at […] by measuring fold change by Western blot analysis relative to control. Format: functional. Conditions: dose 7.5 µM.

Molecule `Cc1cc(CNCCCCCCCCCCC(=O)N[C@H](C(=O)N2C[C@H](O)C[C@H]2C(=O)N[C@@H](C)c2ccc(-c3scnc3C)cc2)C(C)(C)C)cc(C)c1-c1ncn(C)c1-c1ccnc2cc(F)ccc12` came in with a concentration giving a half-maximal response (EC50) in test [1] of 940 nM. Further, the Activity result is “Tde” in [2]; “Dose-Dependent Effect” with NCI-H1703 [4]; 3.68% in the test on NCI-H1703 [7]; 3% in the test with NCI-H1703 [8]; 16.6% in the test on NCI-H1703 [9]. For the same molecule, the outcome in the test with NCI-H1703 [3], in the test with NCI-H1703 [5] and in the test with NCI-H520 [6] was Active. In test [10], the inhibition at 3 µM was 100%. Besides, the “fold change (FC)” value in test [11] is recorded as 0.77; in [12] it was 0.84; in [13], 0.7; in [14], 0.9; in test [15] it was 0.93; in test [16] it was 0.62. The “fold change (FC)” value in the test on NCI-H1703 [17] is on record as 0.73; with NCI-H1703 [18], 0.53; in the test on NCI-H520 [19], 0.5; in the test on NCI-H520 [20] it was 0.49; in the test with NCI-H520 [21] it was 0.61.
